Laboratory results as given in publication PMC11083148, “Structure–Activity Relationship Studies on Highly Functionalized Pyrazole Hydrazones and Amides as Antiproliferative and Antioxidant Agents” (International Journal of Molecular Sciences, 2024).

Columns and labels:
Format in all cases: cell-based
[1] = system: MCF7; assay: MTT assay, antiproliferative activity; conditions: Homo sapiens; for mean growth percentage (cell growth remaining vs control) at 10 µM: 48h
[2] = system: SKOV3; assay: MTT assay, antiproliferative activity; conditions: Homo sapiens; for Mean growth percentage at 10 µM: SK-OV-3, 10 µM, 48h
[3] = system: GM-6114; assay: MTT assay, cytotoxicity on normal fibroblasts; conditions: human, 48 h, 10 µM
[4] = system: CCRF-CEM; assay: NCI screening, Leukemia; conditions: 10 µM
Method: (§1) In addition, 11a and 17 (representative compounds of the acylhydrazone and amide series) were selected by the National Cancer Institute (NCI, Germantown, MD, USA) and tested at a fixed concentration of 10 µM against a panel of fifty-nine different cancer cell lines, including highly metastatic tumors (Table 2).

[5] = system: MOLT-4; assay: NCI screening, Leukemia; conditions: MOLT-4, Leukemia; 10 µM
Method: as §1

[6] = system: RPMI-8226; assay: NCI screening, Leukemia; conditions: RPMI-8226, Leukemia; 10 µM
Method: as §1

[7] = system: COLO 205; assay: NCI screening, Colon Cancer; conditions: COLO 205, Colon Cancer; 10 µM
Method: as §1

[8] = system: HCC-2998; assay: NCI screening, Colon Cancer; conditions: HCC-2998, Colon Cancer; 10 µM
Method: as §1

[9] = system: KM12; assay: NCI screening, Colon Cancer; conditions: 10 µM
Method: as §1

[10] = system: SF-268; assay: NCI screening, CNS Cancer; conditions: SF-268, CNS Cancer; 10 µM
Method: as §1

[11] = system: SF-295; assay: NCI screening, CNS Cancer; conditions: SF-295, CNS Cancer; 10 µM
Method: as §1

[12] = system: SF-539; assay: NCI screening, CNS Cancer; conditions: SF-539, CNS Cancer; 10 µM
Method: as §1

[13] = system: SNB-19; assay: NCI screening, CNS Cancer; conditions: SNB-19, CNS Cancer; 10 µM
Method: as §1

[14] = system: SNB-75; assay: NCI screening, CNS Cancer; conditions: SNB-75, CNS Cancer; 10 µM
Method: as §1

[15] = system: U251; assay: NCI screening, CNS Cancer; conditions: 10 µM
Method: as §1

[16] = system: IGROV1; assay: NCI screening, Ovarian Cancer; conditions: 10 µM
Method: as §1

[17] = system: NCI/ADR-RES; assay: NCI screening, Ovarian Cancer; conditions: 10 µM
Method: as §1

[18] = system: OVCAR-4; assay: NCI screening, Ovarian Cancer; conditions: OVCAR-4, Ovarian Cancer; 10 µM
Method: as §1

[19] = system: OVCAR-5; assay: NCI screening, Ovarian Cancer; conditions: OVCAR-5, Ovarian Cancer; 10 µM
Method: as §1

[20] = system: OVCAR-8; assay: NCI screening, Ovarian Cancer; conditions: OVCAR-8, Ovarian Cancer; 10 µM
Method: as §1

[21] = system: SK-OV-3; assay: NCI screening, Ovarian Cancer; conditions: SK-OV-3, Ovarian Cancer; 10 µM
Method: as §1

[22] = system: NCI-H460; assay: NCI screening, Non-Small Cell Lung Cancer; conditions: 10 µM
Method: as §1

[23] = system: NCI-H522; assay: NCI screening, Non-Small Cell Lung Cancer; conditions: 10 µM
Method: as §1

[24] = system: SW-620; assay: NCI screening, Colon Cancer; conditions: SW-620, Colon Cancer; 10 µM
Method: as §1

[25] = system: HS 578T; assay: NCI screening, Breast Cancer; conditions: 10 µM
Method: as §1

[26] = system: MCF7; assay: NCI screening, Breast Cancer; conditions: 10 µM
Method: as §1

[27] = system: MDA-MB-468; assay: NCI screening, Breast Cancer; conditions: MDA-MB-468, Breast Cancer; 10 µM; negative values indicate lethality
Method: as §1

[28] = system: LOX IMVI; assay: NCI screening, Melanoma; conditions: 10 µM
Method: as §1

[29] = system: M14; assay: NCI screening, Melanoma; conditions: 10 µM
Method: as §1

[30] = system: MDA-MB-435; assay: NCI screening, Melanoma; conditions: MDA-MB-435, Melanoma; 10 µM; negative values indicate lethality
Method: as §1

COc1ccc(/C=N/NC(=O)c2c(N)nn(C)c2Nc2ccccc2)cc1 [11a, (E)-3-amino-N′-(4-methoxybenzylidene)-1-methyl-5-(phenylamino)-1H-pyrazole-4-carbohydrazide]
mean growth percentage (cell growth remaining vs control) at 10 µM [1]: 33.6% | IC50 ([1]; MTT): 6.9 ± 0.34 µM | Mean growth percentage at 10 µM [2]: 43.6% | IC50 ([2]; SK-OV-3, MTT): 6.88 ± 0.23 µM | Mean Growth Percentage [3]: 69.81% | Growth Percentage (%) [4]: 38.45% | Growth Percentage (%) [5]: 49.41% | Growth Percentage (%) [6]: 61.65% | Growth Percentage (%) [7]: 35.82% | Growth Percentage (%) [8]: 59.18% | Growth Percentage (%) [9]: 27.82% | Growth Percentage (%) [10]: 58.65% | Growth Percentage (%) [11]: 98.52% | Growth Percentage (%) [12]: 40.20% | Growth Percentage (%) [13]: 36.78% | Growth Percentage (%) [14]: 35.14% | Growth Percentage (%) [15]: 33.33% | Growth Percentage (%) [16]: 39.64% | Growth Percentage (%) [17]: 32.98% | Growth Percentage (%) [18]: 87.03% | Growth Percentage (%) [19]: 76.88% | Growth Percentage (%) [20]: 70.80% | Growth Percentage (%) [21]: 49.64%

CCOC(=O)c1c(NC(=O)C2CC2)nn(C)c1Nc1ccccc1 [compound 17, Ethyl 3-(cyclopropanecarboxamido)-1-methyl-5-(phenylamino)-1H-pyrazole-4-carboxylate]
mean growth percentage (cell growth remaining vs control) at 10 µM [1]: 92.8% | Mean growth percentage at 10 µM [2]: 86.9% | Mean Growth Percentage [3]: 65.92% | Growth Percentage (%) [4]: 97.75% | Growth Percentage (%) [5]: 101.92% | Growth Percentage (%) [6]: 99.62% | Growth Percentage (%) [22]: 101.02% | Growth Percentage (%) [23]: 97.23% | Growth Percentage (%) [7]: 106.91% | Growth Percentage (%) [8]: 114.15% | Growth Percentage (%) [9]: 105.43% | Growth Percentage (%) [24]: 94.82% | Growth Percentage (%) [10]: 101.17% | Growth Percentage (%) [11]: 102.51% | Growth Percentage (%) [12]: 97.42% | Growth Percentage (%) [13]: 98.39% | Growth Percentage (%) [14]: 94.70% | Growth Percentage (%) [15]: 100.80% | Growth Percentage (%) [16]: 100.75% | Growth Percentage (%) [17]: 103.29% | Growth Percentage (%) [18]: 99.35% | Growth Percentage (%) [19]: 99.49% | Growth Percentage (%) [20]: 101.92% | Growth Percentage (%) [21]: 99.73% | Growth Percentage (%) [25]: 96.86% | Growth Percentage (%) [26]: 92.37% | Growth Percentage (%) [27]: 102.11% | Growth Percentage (%) [28]: 102.01% | Growth Percentage (%) [29]: 102.31% | Growth Percentage (%) [30]: 101.76%
